Structures can show the parent of a compound that is named as a salt.
target: T1, human EP3 receptor (Homo sapiens, UniProt P43115); assay: Cellular in vitro assay for determining EP3 receptor activity (human EP3 cell line, sulprostone-stimulated calcium luminescence); format: cell-based; details: CHO cells expressing human EP3 and mitochondrial Clytin; antagonist mode, sulprostone at EC50; read-out: EP3 CHO mtCLY ANTAG IC50
T1 construct: expressed in transfected cells; host or cells: CHO K1 (Chinese Hamster Ovary), stably co-transfected with Galpha16 and mitochondrial clytin
T1 sequence (P43115 1-390): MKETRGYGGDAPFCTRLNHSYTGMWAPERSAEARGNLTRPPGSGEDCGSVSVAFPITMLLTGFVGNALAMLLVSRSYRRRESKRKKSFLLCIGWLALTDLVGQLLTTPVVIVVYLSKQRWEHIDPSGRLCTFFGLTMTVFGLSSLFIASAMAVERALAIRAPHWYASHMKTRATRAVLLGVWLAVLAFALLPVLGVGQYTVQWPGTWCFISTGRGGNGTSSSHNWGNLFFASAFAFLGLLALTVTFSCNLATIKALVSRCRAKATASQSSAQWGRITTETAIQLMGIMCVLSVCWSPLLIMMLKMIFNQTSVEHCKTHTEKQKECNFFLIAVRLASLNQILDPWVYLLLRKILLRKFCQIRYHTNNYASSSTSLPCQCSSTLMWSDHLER
In short: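 Antagonist activity was measured as inhibition of the luminescent calcium signal elicited by EC50 sulprostone, following 10 min compound pretreatment. The cell line was recombinant CHO K1 co-expressing human EP3, Gα16 and the photoprotein Clytin, reconstituted with coelenterazine.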

| IC50 [nM] | SMILES |
| --- | --- |
| 8.4 | Cc1ccc(-c2cn3nc(C(=O)NCCC(F)(F)F)c(C(F)(F)F)c3c(=O)[nH]2)cc1F [6-148] |
| 4.4 | COC[C@@H](C)NC(=O)c1nn2cc(-c3ccc4ccccc4c3)[nH]c(=O)c2c1C(F)(F)F [6-516] |
| 3.45 | Cc1cc(-c2cn3nc(C(=O)N[C@H](C)C(C)C)c(C4CC4)c3c(=O)[nH]2)ccc1Cl [6-336] |
| 1.35 | Cc1ccc(-c2cn3nc(C(=O)N[C@H](C)C(C)C)c(C(F)(F)F)c3c(=O)[nH]2)cc1Cl [6-189] |
| 3.03 | Cc1ccc(-c2cn3nc(C(=O)N[C@H](C)C(C)(C)C)c(C(F)(F)F)c3c(=O)[nH]2)cc1Cl [6-192] |
| 1.11 | Cc1cc(-c2cn3nc(C(=O)NC(C)C4CCC4)c(C(F)(F)F)c3c(=O)[nH]2)ccc1Cl (racemic) [6-222] |
| 1.95 | Cc1ccc(-c2cn3nc(C(=O)N[C@H](C)CO)c(C4CCC4)c3c(=O)[nH]2)cc1F [6-575] |
| 1.8 | Cc1ccc(-c2cn3nc(C(=O)N[C@@H](C)c4ccc(F)cc4)cc3c(=O)[nH]2)cc1Cl [6-82] |
| 1.9 | Cc1cc(-c2cn3nc(C(=O)N[C@@H](C)C4CC4)c(C(C)C)c3c(=O)[nH]2)ccc1Cl [6-608] |
| 3 | Cc1ccc(-c2cn3nc(C(=O)NC(CO)C(F)(F)F)c(C4CC4)c3c(=O)[nH]2)cc1C(F)(F)F (single isomer, unassigned) [6-249] |
| 0.85 | Cc1cc(-c2cn3nc(C(=O)NCC(O)C(F)(F)F)c(C4CC4)c3c(=O)[nH]2)ccc1Cl (single isomer, unassigned) [6-314] |
| 0.44 | Cc1cc(-c2cn3nc(C(=O)N[C@@H](c4ccc(F)cc4)C(F)(F)CO)c(C(F)(F)C(F)(F)F)c3c(=O)[nH]2)ccc1Cl [6-477] |
| 0.69 | Cc1ccc(-c2cn3nc(C(=O)NCCC(O)C(F)(F)F)c(C4CC4)c3c(=O)[nH]2)cc1F (single isomer, unassigned) [6-367] |
| 5.35 | Cc1ccc(-c2cn3nc(C(=O)NC(C)CN4CCOCC4)c(C4CC4)c3c(=O)[nH]2)cc1C (single isomer, unassigned) [6-451] |
| 1.3 | Cc1nc(-c2cn3nc(C(=O)N[C@@H](c4ccc(F)cc4)C(F)(F)CO)c(C4CC4)c3c(=O)[nH]2)ccc1Cl [6-591] |
| 1.3 | COC[C@H](NC(=O)c1cc2c(=O)[nH]c(-c3ccc(C)c(C)c3)cn2n1)c1ccccc1 [6-50] |
| 1.55 | Cc1cc(-c2cn3nc(C(=O)NC(c4ccc(F)cc4)C4(O)CC4)c(C4CC4)c3c(=O)[nH]2)ccc1F (racemic) [6-650] |
| 5 | Cc1ccc(-c2cn3nc(C(=O)NC4(c5ccc(F)cc5)CC4)cc3c(=O)[nH]2)cc1C(F)(F)F [6-26] |
| 9.5 | Cc1cc(-c2cn3nc(C(=O)NC4CCN(C5CC5)C4)c(C(F)(F)F)c3c(=O)[nH]2)ccc1Cl (single isomer, unassigned) [6-241] |
| 1.45 | Cc1ccc(-c2cn3nc(C(=O)NC(CN4CCOCC4)c4ccc(F)cc4)c(C4CC4)c3c(=O)[nH]2)cc1C (racemic) [6-441] |
| 5.77 | O=C(N[C@@H]1c2ccccc2C[C@@H]1O)c1cc2c(=O)[nH]c(-c3ccc4ccccc4c3)cn2n1 [6-74] |
| 29.5 | Cc1cc(-c2cn3nc(C(=O)NCC(N)C(F)(F)F)c(C4CC4)c3c(=O)[nH]2)ccc1C(F)(F)F (racemic) [6-130] |
| 2.55 | Cc1ccc(-c2cn3nc(C(=O)NC(C)(C)c4ccc(F)cc4)cc3c(=O)[nH]2)cc1C [6-45] |
| 1.25 | Cc1cc(-c2cn3nc(C(=O)NC(C)C4CCC4)c(C(F)(F)F)c3c(=O)[nH]2)ccc1Cl (single isomer, unassigned) [6-223] |

The next lines start with the molecule.

| SMILES | IC50 [nM] |
| --- | --- |
| Cc1cccc2ncc(-c3cn4nc(C(=O)NCCn5ccc(C6CC6)n5)c(C(C)C)c4c(=O)[nH]3)cc12 [Example 4-40, N-[2-(3-Cyclopropyl-1H-pyrazol-1-yl)ethyl]-6-(5-methylquinolin-3-yl)-4-oxo-3-(propan-2-yl)-4,5-dihydropyrazolo[1,5-a]pyrazine-2-carboxamide] | 0.85 |
| CN1CC(NC(=O)c2nn3cc(-c4ccc5ccccc5c4)[nH]c(=O)c3c2C(F)(F)F)(c2ccc(F)cc2)C1 [Example 1-31, N-[3-(4-Fluorophenyl)-1-methylazetidin-3-yl]-6-(naphthalen-2-yl)-4-oxo-3-(trifluoromethyl)-5H-pyrazolo[1,5-a]pyrazine-2-carboxamide trifluoroacetic acid salt] | 1.84 |
| Cc1cccc2ncc(-c3cn4nc(C(=O)N[C@@H](CO)c5ccccc5)c(C(C)C)c4c(=O)[nH]3)cc12 [Example 4-67, N-[(7R)-2-Hydroxy-1-phenylethyl]-6-(5-methylquinolin-3-yl)-4-oxo-3-(propan-2-yl)-4,5-dihydropyrazolo[1,5-a]pyrazine-2-carboxamide] | 1.55 |
| COC(=O)N1CC(NC(=O)c2cc3c(=O)[nH]c(-c4ccc(C)c(C)c4)cn3n2)(c2ccc(OC)cc2)C1 [Example 1-66, Methyl 3-({[6-(3,4-dimethylphenyl)-4-oxo-4,5-dihydropyrazolo[1,5-a]pyrazin-2-yl]carbonyl}amino)-3-(4-methoxyphenyl)azetidine-1-carboxylate] | 1.65 |
| Cc1cccc2ncc(-c3cn4nc(C(=O)NCc5ccncc5)c(C(C)C)c4c(=O)[nH]3)cc12 [Example 4-25, 6-(5-Methylquinolin-3-yl)-4-oxo-3-(propan-2-yl)-N-[(pyridin-4-yl)methyl]-4,5-dihydropyrazolo[1,5-a]pyrazine-2-carboxamide] | 3.25 |
| COc1ccc(C(CCO)NC(=O)c2nn3c(C)c(-c4ccc5ccccc5c4)[nH]c(=O)c3c2C)cc1 (centres unmarked) [Example 3-37, N-[3-Hydroxy-1-(4-methoxyphenyl)propyl]-3,7-dimethyl-6-(2-naphthyl)-4-oxo-5H-pyrazolo[1,5-a]pyrazine-2-carboxamide] | 2.4 |
| Cc1c(C(=O)NCCn2ccc(C3CC3)n2)nn2c(C)c(-c3ccc4ccccc4c3)[nH]c(=O)c12 [Example 3-1, N-[2-(3-Cyclopropyl-1H-pyrazol-1-yl)ethyl]-3,7-dimethyl-6-(naphthalen-2-yl)-4-oxo-4,5-dihydropyrazolo[1,5-a]pyrazine-2-carboxamide] | 0.79 |
| Cc1ccc(-c2cn3nc(C(=O)N[C@@H](c4ccc(F)cc4)C(C)(C)O)c(C)c3c(=O)[nH]2)cc1F [Example 1-162, 6-(3-Fluoro-4-methylphenyl)-N-[(1S)-1-(4-fluorophenyl)-2-hydroxy-2-methylpropyl]-3-methyl-4-oxo-4,5-dihydropyrazolo[1,5-a]pyrazine-2-carboxamide] | 0.89 |
| O=C(N[C@H](CCO)c1ccc(F)cc1)c1nn2cc(-c3ccc4ccccc4c3)[nH]c(=O)c2c1C1CC1 [Example 1-144, 3-Cyclopropyl-N-[(1R)-1-(4-fluorophenyl)-3-hydroxypropyl]-6-(naphthalen-2-yl)-4-oxo-4,5-dihydropyrazolo[1,5-a]pyrazine-2-carboxamide] | 3.05 |
| Cc1cccc2ncc(-c3cn4nc(C(=O)NCC(N)=O)c(C(C)C)c4c(=O)[nH]3)cc12 [Example 4-31, N-(2-Amino-2-oxoethyl)-6-(5-methylquinolin-3-yl)-4-oxo-3-(propan-2-yl)-4,5-dihydropyrazolo[1,5-a]pyrazine-2-carboxamide] | 7.4 |
| Cc1cccc2ncc(-c3cn4nc(C(=O)Nc5ccnn5C(C)C)c(C(C)C)c4c(=O)[nH]3)cc12 [Example 4-15, 6-(5-Methylquinolin-3-yl)-4-oxo-3-(propan-2-yl)-N-[1-(propan-2-yl)-1H-pyrazol-5-yl]-4,5-dihydropyrazolo[1,5-a]pyrazine-2-carboxamide] | 2.9 |
| Cc1ccc(-c2cn3nc(C(=O)N[C@H](CCO)c4ccc(F)cc4)c(Cl)c3c(=O)[nH]2)cc1C [Example 1-63, 3-Chloro-6-(3,4-dimethylphenyl)-N-[(1R)-1-(4-fluorophenyl)-3-hydroxypropyl]-4-oxo-4,5-dihydropyrazolo[1,5-a]pyrazine-2-carboxamide] | 0.443 |
| Cc1ccc(-c2cn3nc(C(=O)NC4(c5ccc(F)cc5)CN(C)C4)c(C)c3c(=O)[nH]2)cc1Cl [Example 1-150, 6-(3-Chloro-4-methylphenyl)-N-[3-(4-fluorophenyl)-1-methylazetidin-3-yl]-3-methyl-4-oxo-4,5-dihydropyrazolo[1,5-a]pyrazine-2-carboxamide] | 7.23 |
| O=C(NC(CO)c1ccc2c(c1)OCO2)c1cc2c(=O)[nH]c(-c3ccc4ccccc4c3)cn2n1 (centres unmarked) [Example 2-28, N-[1-(1,3-Benzodioxol-5-yl)-2-hydroxyethyl]-6-(2-naphthyl)-4-oxo-4,5-dihydropyrazolo[1,5-a]pyrazine-2-carboxamide] | 0.93 |
| CCn1ccc(C(C)NC(=O)c2cc3c(=O)[nH]c(-c4ccc5ccccc5c4)cn3n2)n1 (centres unmarked) [Example 2-54, N-[1-(1-Ethyl-1H-pyrazol-3-yl)ethyl]-6-(2-naphthyl)-4-oxo-4,5-dihydropyrazolo[1,5-a]pyrazine-2-carboxamide] | 7.05 |
| Cc1nn(C(C)CNC(=O)c2cc3c(=O)[nH]c(-c4ccc5ccccc5c4)cn3n2)c(C)c1Cl (centres unmarked) [Example 2-46, N-[2-(4-Chlor-3,5-dimethyl-1H-pyrazol-1-yl)propyl]-6-(2-naphthyl)-4-oxo-4,5-dihydropyrazolo[1,5-a]pyrazine-2-carboxamide] | 2.95 |
| N#Cc1c(C(=O)NC2(c3ccc(Cl)cc3)CCC2)nn2cc(-c3ccc4ccccc4c3)[nH]c(=O)c12 [Example 3-62, N-[1-(4-Chlorophenyl)cyclobutyl]-3-cyano-6-(naphthalen-2-yl)-4-oxo-4,5-dihydropyrazolo[1,5-a]pyrazine-2-carboxamide] | 4 |
